# Results from ChEMBL document CHEMBL1147725, “Identification and biological characterization of 6-aryl-7-isopropylquinazolinones as novel TRPV1 antagonists that are effective in models of chronic pain” (J Med Chem, 2006).
# Active and inactive are the calls of the source. The calls are words filed in the database; no cut-off is given here.
# Legend:
# [1] = target: T1, Transient receptor potential cation channel subfamily V member 1 (Homo sapiens, UniProt Q8NER1); assay: Inhibition of calcium influx evoked by capsaicin in human TRPV1 expressing cells by fluorescence assay; format: functional
# [2] = Half life in rat at 3 mg/kg, po; format: ADME, organism-based; design: dose 3 mg/kg, route oral; settings: Wistar Han, in vivo
# [3] = target: T1, Transient receptor potential cation channel subfamily V member 1; assay: Inhibition of low pH activation of human TRPV1; format: functional
# [4] = Aqueous solubility at pH 6.8 and 25 degC; format: physicochemical; settings: aqueous medium
# [5] = target: Transient receptor potential cation channel subfamily V member 1 (Rattus norvegicus) (UniProt O35433); assay: Inhibition of calcium influx evoked by capsaicin in rat TRPV1 expressing cells by fluorescence assay; format: functional, cell-based
# Sequence of Transient receptor potential cation channel subfamily V member 1 (Rattus norvegicus) (O35433 whole entry): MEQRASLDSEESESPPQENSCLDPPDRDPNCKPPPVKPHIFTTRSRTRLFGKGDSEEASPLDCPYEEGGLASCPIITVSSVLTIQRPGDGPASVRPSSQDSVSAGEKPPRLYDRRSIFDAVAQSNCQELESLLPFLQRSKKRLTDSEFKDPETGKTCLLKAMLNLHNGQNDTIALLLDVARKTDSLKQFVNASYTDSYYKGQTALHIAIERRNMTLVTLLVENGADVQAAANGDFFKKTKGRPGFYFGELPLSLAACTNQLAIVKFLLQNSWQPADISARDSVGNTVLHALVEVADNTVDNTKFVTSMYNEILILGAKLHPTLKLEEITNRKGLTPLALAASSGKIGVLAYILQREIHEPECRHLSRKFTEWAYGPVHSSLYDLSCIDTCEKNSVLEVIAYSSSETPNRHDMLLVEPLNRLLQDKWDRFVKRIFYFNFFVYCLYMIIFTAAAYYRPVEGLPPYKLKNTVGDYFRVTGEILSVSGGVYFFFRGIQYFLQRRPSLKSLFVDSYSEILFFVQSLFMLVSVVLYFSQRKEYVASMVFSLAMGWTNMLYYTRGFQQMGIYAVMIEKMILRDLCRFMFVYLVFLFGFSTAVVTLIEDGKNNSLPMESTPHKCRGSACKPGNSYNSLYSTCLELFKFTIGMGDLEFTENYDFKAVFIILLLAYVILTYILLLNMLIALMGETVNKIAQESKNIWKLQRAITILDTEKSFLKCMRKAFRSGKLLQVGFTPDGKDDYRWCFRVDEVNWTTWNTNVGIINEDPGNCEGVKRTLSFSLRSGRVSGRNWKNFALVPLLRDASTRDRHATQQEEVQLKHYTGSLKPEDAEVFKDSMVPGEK
# T1 sequence (Q8NER1 whole entry): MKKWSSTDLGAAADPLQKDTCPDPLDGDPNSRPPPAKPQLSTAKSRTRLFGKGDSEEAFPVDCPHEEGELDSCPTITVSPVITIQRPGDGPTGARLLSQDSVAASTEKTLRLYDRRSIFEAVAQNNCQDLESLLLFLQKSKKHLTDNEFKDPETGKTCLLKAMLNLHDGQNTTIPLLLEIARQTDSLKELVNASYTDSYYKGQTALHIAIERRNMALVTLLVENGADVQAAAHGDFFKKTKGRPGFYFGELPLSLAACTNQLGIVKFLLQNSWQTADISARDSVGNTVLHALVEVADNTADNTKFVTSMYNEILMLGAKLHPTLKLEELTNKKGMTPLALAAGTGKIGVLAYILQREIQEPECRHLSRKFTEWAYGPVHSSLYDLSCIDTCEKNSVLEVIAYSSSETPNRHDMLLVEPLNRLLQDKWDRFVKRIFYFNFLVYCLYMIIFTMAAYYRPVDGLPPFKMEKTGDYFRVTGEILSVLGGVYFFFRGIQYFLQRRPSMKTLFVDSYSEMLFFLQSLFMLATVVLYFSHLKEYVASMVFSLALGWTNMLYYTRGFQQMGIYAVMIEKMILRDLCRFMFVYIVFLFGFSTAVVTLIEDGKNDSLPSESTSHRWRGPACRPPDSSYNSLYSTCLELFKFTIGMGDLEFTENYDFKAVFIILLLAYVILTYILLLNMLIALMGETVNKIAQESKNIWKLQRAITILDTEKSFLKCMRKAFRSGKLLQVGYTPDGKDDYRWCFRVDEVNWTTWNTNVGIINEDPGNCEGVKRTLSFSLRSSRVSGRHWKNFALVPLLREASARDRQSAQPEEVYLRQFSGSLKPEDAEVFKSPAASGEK
IC50 [1] [nM],Compound,other results
12,CCOc1cc(-c2cc3c(=O)[nH]c(C)nc3cc2C(C)C)ccc1Cl,
,CC(C)(C)c1nc2[nH]c(=S)[nH]c(=O)c2cc1-c1ccc(Cl)cc1,half-life [2]: 450 min; IC50 [3]: 18 nM; solubility [4]: 0.15 µg/mL
82,CCCCOc1cc(-c2cc3c(=O)[nH]c(C)nc3cc2C(C)C)ccc1Cl,
> 1000,CCc1nc2cc(C(C)C)c(-c3ccc(Cl)cc3)cc2c(=O)[nH]1,
487,Cc1nc2cc(C(C)C)c(-c3ccc(Cl)c(OCCN(C)C)c3)cc2c(=O)[nH]1,
40,CCCOc1cc(-c2cc3c(=O)[nH]c(C)nc3cc2C(C)C)ccc1Cl,
37,CCOc1cc(-c2cc3c(=O)[nH]c(C)nc3cc2C(C)C)c(Cl)cc1Cl,
13,Cc1nc2cc(C(C)C)c(-c3ccc(Cl)cc3)cc2c(=O)[nH]1,solubility [4]: 4 µg/mL
201,Cc1nc(O)c2cc(-c3ccc(Cl)c(OC(C)C)c3)c(C(C)C)cc2n1,
,CC(C)(C)c1nc2nc(S)nc(O)c2cc1-c1ccc(Cl)cc1,Activity [1]: inactive; Activity [5]: inactive
144,Cc1nc(O)c2cc(-c3ccc(Cl)c(OCC4CCC4)c3)c(C(C)C)cc2n1,
100,COc1cc(Cl)cc(-c2cc3c(O)nc(C)nc3cc2C(C)C)c1,
